Results taken from patent US20080075688A1, “Use of non-digestible polymeric foams to sequester ingested materials thereby inhibiting their absorption by the body” (The Procter & Gamble Company, priority 2003, published 2008).

Key:
[1] = test system: rats; assay: Observer rating of oil on the fur of rats, Example 4; format: in vivo, rat
Method: Three groups of rats were matched by weight and receive a high-fat diet (30% of calories as corn oil) for 9 days. One of the groups also received 400 ppm XENICAL® as part of the diet. The third group received both 400 ppm XENICAL® and 0.5% ground particulate HIPE foam from Example 1, Sample 1 as part of the diet. Total diet intake was measured throughout the study, and fecal output was measured in tail cups fitted to the animals during the last two days of the study. The pooled two-day collection of feces from each animal was analyzed for fat content according to AOAC method 954.04, published by AOAC International, Gaithersburg, Md. On days 5 and 7 of the study, the appearance of each animal was judged by two observers unaware of the dietary treatment of the animals. These observers assigned numerical values that increased with the amount of oil seen on the fur. A value of 1 was used to describe animals with no oil apparent on their fur. A value of 5 was used to describe animals with more than 90% of their fur coated with oil. Values of 2, 3, or 4, as appropriate, were assigned to animals with intermediate amounts of oil on the fur.

[2] = test system: rats; assay: Fat excretion in rats on a high-fat diet (30% of calories as corn oil) for 9 days with XENICAL, Example 4; format: in vivo, rat; conditions: 400 ppm XENICAL without or with 0.5% HIPE foam in diet
Method: Three groups of rats were matched by weight and receive a high-fat diet (30% of calories as corn oil) for 9 days. One of the groups also received 400 ppm XENICAL® as part of the diet. The third group received both 400 ppm XENICAL® and 0.5% ground particulate HIPE foam from Example 1, Sample 1 as part of the diet. Total diet intake was measured throughout the study, and fecal output was measured in tail cups fitted to the animals during the last two days of the study. The pooled two-day collection of feces from each animal was analyzed for fat content according to AOAC method 954.04, published by AOAC International, Gaithersburg, Md.

Average Rating (oil on fur) ([1]; days 5 and 7, two blinded observers, scale 1 (no oil apparent on fur) to 5 (more than 90% of fur coated), control 1.03): 4.41
Compound: CCCCCCCCCCC[C@@H](C[C@@H]1OC(=O)[C@H]1CCCCCC)OC(=O)[C@H](CC(C)C)NC=O [XENICAL ®, tetrahydrolipstatin]
Oil on fur rating compared with the other groups ([1]; 400 ppm XENICAL only versus control and XENICAL + foam): significantly different relative to the other two groups | Fat excretion versus the control group [2]: significantly more fat than the control group | Mean Total 48 hour Lipid Excretion ([2]; corn oil diet 9 days, feces of last two days, control 0.16): 2.6 g | Excreted Fat (as % Ingested Fat) ([2]; corn oil diet 9 days, feces of last two days, control 3.9): 59.1 % Ingested Fat
